The test system of this assay is gastric acid secretion. Nature of the assay: Acute gastric fistula rat test: inhibition of gastric acid secretion (Total Acid Output). Type of assay: in vivo, Female Sprague-Dawley rats. As to conditions: read-out: ED50 Acute Gastric Fistula (dose required to produce an average of 50% inhibition in Total Acid Output versus controls). As to the method:
The compounds of the invention of formula (I) are useful for the inhibition of gastric acid secretion as measured by the following test. Female Sprague-Dawley rats are fasted twenty-four hours before testing and are given water ad libidum while being kept in individual cages. On the day of testing, the rats are weighed within a range of ±20 grams.
Surgery is carried out under light ether anesthesia. As soon as the rat is anesthetized its teeth are removed and a mid-line incision is made on the abdomen about 11/2 inches in length and the stomach and duodenum are exposed. If at this point the stomach is filled with food or fecal material, the rat is discarded. If the condition of the stomach is acceptable, a purse string stitch is placed on the fundic portion of the stomach with a suture, taking care not to pierce any blood vessels in the area. A small nick is then made into the stomach in the center of the purse string, and a cannula, consisting of a small vinyl tube with a flange on one end, is put into the stomach, and the purse string stitch is closed tightly around the flange. The test compound is administered either intraduodonally (i.d.) immediately after surgery or orally (p.o.) one hour prior to surgery at doses generally ranging from about 0.25 to about 160 mg/kg in a volume of 0.5 ml/100 grams rat. Control rats receive the test vehicle, 0.5% aqueous hydroxypropyl methyl cellulose.
After surgery and, in the case of i.d. administration, after administration of the test compound, the abdominal wall and skin are closed simultaneously with three or four 18 mm wound clips and a collecting tube is placed on the cannula. Each rat is then placed in a box in which a longitudinal slit has been made to allow the cannula to hang freely and to allow the rat to move about unencumbered. After the rat has been allowed to stabilize for thirty minutes, the collection tube on the cannula is discarded and replaced with a clean tube to receive the gastric juice. Collections are made one hour after stabilization.
The sample of gastric contents collected is drained into a centrifuge tube and centrifuged to pack down the sediment. The volume is read and a 1 ml aliquot of the supernatant is put into a beaker containing 20 ml of distilled water and is titrated to pH 7 using 0.01N sodium hydroxide. Results are determined for Volume, Titratable Acid and Total Acid Output, where Volume equals total ml of gastric juice minus sediment; Titratable Acid (meq/1) equals amount of 0.01N sodium hydroxide needed to titrate the acid to pH 7; and Total Acid Output equals Titratable Acid times Volume. Results are reported as the ED50 dose (mg/kg required to produce an average of 50% inhibition in Total Acid Output versus controls in the animals tested for a particular compound) and as percent inhibition.

Where [1] appears, read: po, one hour prior to surgery, 1 h collection after 30 min stabilization.

Like-named read-outs stand apart in the source and are kept apart here.

In the case of `C(=NCc1cccs1)N1CCC(C(c2ccccc2)c2ccccc2)CC1` [Example 4, 4-(Diphenylmethyl)-1-[(2-thiophenemethyl)imino]methylpiperidine (E)-2-butenedioate (1:1) hydrate (2:1)], the ED50 under setting [1] came out at 6.59 mg/kg. On the same count and under the same terms, under `C(=NCCc1ccccn1)N1CCC(C(c2ccccc2)c2ccccc2)CC1` [Example 5, 4-(Diphenylmethyl-1[[2-(2-pyridinyl)ethyl]iminomethyl]piperidine (E)-2-butenedioate (1:1)] stands 3.47 mg/kg; under `C(=NCCc1ccncc1)N1CCC(C(c2ccccc2)c2ccccc2)CC1` [Example 6, 4-Diphenylmethyl-1-[[2-(4-pyridinyl)ethyl]iminomethyl]piperidine 2-naphthalenesulfonate hydrate (4:4:3)], 18.8 mg/kg. `C(=NCCc1c[nH]c2ccccc12)N1CCC(C(c2ccccc2)c2ccccc2)CC1` [Example 2, N-(4-Diphenylmethyl-1-piperidinyl)-methylene-3-1H-indoleethaneamine monohydroiodide]: where the note is “ip, compound administered intraperitoneally (footnote *)”, the ED50 amounted to 4.34 mg/kg. With `Cn1cccc1CCN=CN1CCC(C(c2ccccc2)c2ccccc2)CC1.O=C(O)/C=C/C(=O)O` [Example 3, 4-Diphenylmethyl-1-[N-[(1-methyl-1H-pyrrol-2-yl)ethyl]-iminomethyl]piperidine (E)-2-butenedioate], the ED50 under setting [1] came to 3.61 mg/kg. As to `C(=NCc1ccco1)N1CCC(C(c2ccccc2)c2ccccc2)CC1` [Example 1, 4-(Diphenylmethyl)-1-[(2-furanylmethyl)iminomethyl]piperidine (E)-2-butenedioate (1:1) hydrate (5:2)], the ED50 under setting [1] was 6.91 mg/kg.

Values taken from patent US4528293A, “Heteroaromatic derivatives of iminomethyl piperidines and use to inhibit gastric acid secretion” (McNeilab, Inc., priority 1983, dated 1985).
